# Several values for one entry are separate records, joined by “and”; a condition that tells them apart may be missing. Identical values can stand only once. Like-named read-outs stand apart in the source and are kept apart here.
# Key:
# [1] = tested on: cysteine protease activities in trophozoite lysates; test: Proteolytic activity assay (gelatin zymogram); type: biochemical, Giardia duodenalis
# Protocol: Trophozoite lysates were prepared as mentioned above except that cell lysis was carried out by sonication in 1.5 mL microcentrifuge tubes under ice bath using eight 15-s pulses at 80% amplitude with resting periods of 30 s (Ultrasonic Processor mod. CV19). Protein concentration was adjusted to 2 mg/mL and aliquoted in 25 μL fractions that were incubated for 30 min room temperature with 2–5 μL stock solutions of representative TACs (ALC, DADS, and AM). The reaction mixtures were diluted in Laemmli's sample buffer, loaded in wells of 10% acrylamide-02% gelatin slab gels and these were electrophoretically analyzed using 80 V/4°C. After this, gels were incubated in a solution of triton X-100 2.5% (v/v) in water for 1 h and washed 3 times with distilled water. Bands with proteolytic activity were detected as follows: gels were incubated in acetate buffer pH 5.5 with 1 mM DTT for 16 h at 37°C under constant stirring, washed 3 times with distilled water and stained with Coomassie blue (BioRad) for 2 h at 37°C under constant stirring. Finally, gels were washed with distilled water and incubated with a solution of 5% acetic acid/40% methanol (v/v). Gel images were documented with a UVP High Performance Ultraviolet Transilluminator and software Launch DocItLS.
# giardipain-1 = biological target: T1, giardipain-1 (Giardia intestinalis, UniProt P92132); test: Inhibition of cytolytic effect of giardipain-1 on IEC6 cell monolayers; type: cell-based, Giardia duodenalis; details: 100 min
# T1 construct: the 25 kDa band that contains the processed form of the cathepsin B-like protease named as giardipain-1; endogenous in cells
# Protocol: (§1) Additional assays were carried out using the MLCs of TACs (without giardipain-1) previously obtained in trophozoite cultures to monitor their toxicity. These solutions were added to monolayers of the intestinal cell line IEC6 grown in 1 cm^2-microwells and incubated for 100 min at 37°C. After incubation, supernatants were discarded and monolayers were fixed with 2% paraformaldehyde in PBS. The effects of TACs and E64 on the cytolytic effect of giardipain-1 were evaluated by light microscopy using Nomarski optics (Axioskop 40, Zeiss).
# [2] = tested on: G. duodenalis trophozoites; test: Efficacy in experimental giardiasis; details: read day 13
# Protocol: Eighty male Mongolian gerbils (M. unguiculatus) 6–10 weeks old, weighted 45–60 g and sentinel-checked gerbils free of intestinal parasites were kept in individual cages and distributed in 12 groups of 6 animals per treatment and experimental infections were performed as described elsewhere (Argüello-García and Ortega-Pierres, [1997]). In brief, animals were inoculated intragastrically with 1 × 10^6 G. duodenalis trophozoites in 500 μl sterile PBS per os using gavage under ether anesthesia. Control animals received 500 μl sterile PBS each. […] As additional control, one group of animals received MTZ (38.4 mg/kg at single or double dose). […] Treatment efficacy was evaluated by determining the presence or absence of trophozoites in intestinal contents of control and treated gerbils at day 13 post-infection. For this, gerbils were euthanized by an intraperitoneal injection of pentobarbital at a dose of 150 mg/kg to minimize stress and to reduce suffering, then a 10 cm-long section of intestine (from stomach ending, equivalent to nearly the entire small intestine) was excised after laparotomy, and it was longitudinally opened and rinsed in 20 mL PBS at 4°C for 20 min under shaking (720 rpm, Heidolph^TM rotatory shaker) to determine trophozoites number after parasite detachment from microvilli. Supernatant was collected and centrifuged at 750 × g for 10 min at 4°C, cell pellet was resuspended in 1 mL PBS and trophozoites were counted using a haemocytometer. Gerbils were scored as cured if no trophozoites were recovered from infected animals.
# [3] = tested on: G. duodenalis trophozoites; test: In vitro susceptibility, subculture in liquid medium (SCLM); type: cell-based, Giardia duodenalis (WB strain); details: for MLC (mM) ±SD / IC50: SCLM, 24 h exposure; for IC50: read-out: IC50 (mM) ±SD
# [4] = tested on: G. duodenalis trophozoites; design: method as in Argüello-García et al., 2004; details: positive control drug; ref Argüello-García et al., 2004; cited from earlier work
# [5] = tested on: thiol groups exposed in G. duodenalis trophozoite proteins; test: Thiol-modifying activity (inhibition of thiol-DTNB complexes); type: biochemical, Giardia duodenalis; details: 100 μg soluble trophozoite protein, 10 min 37°C, DTNB 412 nm
# Protocol: The technique reported by Lawson and Wang ([1993]) was followed. In these assays trophozoites were collected from 60 mL flasks, washed 3 times with PBS and resuspended in 500 μL PBS containing a 1:12.5 dilution of a commercial mixture of protease inhibitors (Complete^TM, Roche Diagnostics GmbH, Indianapolis, IN, USA) and lysed by sonication at 12 microns/60% amplitude (Ultrasonic apparatus Sonic UVX1130PB). Soluble proteins were recovered by centrifugation at 15,400 × g for 30 min at 4°C and protein concentration was determined by the Bradford technique. These samples were adjusted to a concentration of 1 mg/mL. Reactions were carried out in 1.5 mL microcentrifuge tubes with a mixture of 100 μg protein (100 μL) and NaH2PO4 45 mM pH 7.0 mM (800 μL) to which increasing volumes of TACs stocks or a positive control with the thiol derivatizing agent MMTS prepared at 50 mM in the same buffer, were added and total volume was adjusted to 1 mL. After incubation for 10 min at 37°C, 100 μL of 1.5 mM dithionitrobenzoic acid (DTNB, Ellman's reagent) were added to each tube and following incubation for 10 min at room temperature the absorbances (yellow solutions) were recorded at 412 nm (Smart Spec 3000^TM, Bio-Rad, Hercules, CA, USA). A calibration curve was obtained using increasing volumes (0–100 μL) of 15.5 mM cysteine instead protein extracts and the maximal blocking concentration (MBC) corresponding to a complete absence of thiol-DTNB complexes produced by TACs were calculated using the least-square method (Microsoft Excel^TM).
# [6] = tested on: G. duodenalis trophozoites; test: ROS formation, H2DCFDA flow cytometry; type: cell-based, Giardia duodenalis
# Protocol: (§2) The identification and quantitative determinations of trophozoites were carried out as follows: (a) apoptosis or necrosis were determined using anti-annexin V-fluorescein isothiocyanate (FITC) antibodies or PI as respective markers, (b) oxidative stress was determined by formation of reactive oxygen species (ROS) with the fluorescent ROS-complexing agent 5-(and 6)-carboxy 2′7′-dichlorodihydrofluorescein diacetate (H2DCFDA), and (c) determination of trophozoites cell cycle stages (G1, S, G2, and G2/M) after exposure to ALC or to a control drug (albendazole, ABZ) was carried out as previously described (Martínez-Espinosa et al., [2015]). In all these assays 20,000 cells per sample were recorded.
# [7] = tested on: G. duodenalis trophozoites; test: Cell cycle stages, PI flow cytometry; type: cell-based, Giardia duodenalis; details: 1.35 μM, 24 h
# Protocol: as §2
# [8] = tested on: G. duodenalis trophozoites; test: Annexin V-PI flow cytometry (apoptosis/necrosis); type: cell-based, Giardia duodenalis; details: 0.48 μM, 24 h
# Protocol: as §2
# IEC6 cell monolayers = test: Toxicity of TACs on IEC6 cell monolayers; type: cell-based; details: 275 mM, without giardipain-1, 100 min
# Protocol: as §1
# T1 sequence (P92132 75-300): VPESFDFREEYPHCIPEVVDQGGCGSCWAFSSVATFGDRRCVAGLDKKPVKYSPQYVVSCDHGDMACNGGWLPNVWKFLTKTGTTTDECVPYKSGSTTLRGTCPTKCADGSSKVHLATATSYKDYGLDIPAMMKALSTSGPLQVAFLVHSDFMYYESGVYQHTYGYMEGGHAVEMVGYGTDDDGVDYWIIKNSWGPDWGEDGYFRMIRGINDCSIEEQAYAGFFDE
molecule,measurement,setting,value
"CC(C)C[C@H](NC(=O)[C@H]1O[C@@H]1C(=O)O)C(=O)NCCCCN=C(N)N [E64, reference compound]",effect on proteolytic bands in zymogram,[1]; 20 μM,selective inhibition on the 25 kDa band
same,effect on giardipain-1 cytopathic damage in IEC6 monolayers,giardipain-1; 20 μM pre-incubated 30 min with giardipain-1 16 μg/mL,efficiently inhibited the giardipain-1 induced damage
"Cc1ncc([N+](=O)[O-])n1CCO [MTZ, metronidazole, reference compound]",cure rate (gerbils without trophozoites),[2]; 36 mg/kg at twice dose,5 out of 6
same,cure rate (gerbils without trophozoites),[2]; 36 mg/kg single dose,3 out of 6
same,inhibition at 3 µM,"[3]; Giardia duodenalis, 3.0 μM, 24 h, positive control, read-out: inhibition of trophozoite growth",45 to 55%
same,inhibition at 5.9 µM,"[3]; Giardia duodenalis, 5.9 μM, 24 h, positive control, read-out: inhibition of trophozoite growth",> 95%
same,IC50,[4],0.003 mM
same,MLC,[4],0.0059 mM
"C=CCSC [AMS, allyl methyl sulfide]",MBC (maximal blocking concentration) ± SD,[5],845.9 mmol/mg protein and 845.96 ± 78.1 mmol/mg protein
same,MLC (mM) ±SD,[3],74.28 mM
same,MLC (mM) ±SD,[3]; listed as Allyl Methyl Sulfide (AMS),74.28 ± 12.3 mM
same,IC50,[3],40.3 ± 3.5 mM
S-allyl-L-cysteine [SAC],MBC (maximal blocking concentration) ± SD,[5],1260.9 mmol/mg protein and 1260.99 ± 125.6 mmol/mg protein
same,MLC (mM) ±SD,[3],69.1 mM
same,MLC (mM) ±SD,[3]; listed as S-Allyl Cysteine (SAC),69.10 ± 13.1 mM
same,IC50,[3],40.8 ± 6.3 mM
"CSS(C)(=O)=O [MMTS, methyl methanethiosulfonate, reference compound]",MBC (maximal blocking concentration) ± SD,[5],55.45 ± 3.2 mmol/mg protein
"C=CCSCC=C [DAS, diallyl sulfide]",MBC (maximal blocking concentration) ± SD,[5],351.3 mmol/mg protein and 351.34 ± 78.9 mmol/mg protein
same,IC50,[3]; Giardia duodenalis,14.5 ± 2.3 mM
same,MLC (mM) ±SD,[3],23.71 mM
same,MLC (mM) ±SD,[3]; listed as Diallyl Sulfide (DAS),23.71 ± 6.0 mM
"CC(C)(C)OO [TBHP, tert-butyl hydroperoxide]",cells positive for ROS (total),"[6]; TBHP control, 400 μM per Figure 9, 24 h",17.1%
"O=C([O-])c1cc[c]([Hg][OH])cc1.[Na+] [pHMB, sodium p-hydroxymercuribenzoate, reference compound]",effect on proteolytic bands in zymogram,[1]; 10 mM,full inhibition of all proteolytic bands
"CCCSc1ccc2nc(NC(=O)OC)[nH]c2c1 [ABZ, albendazole]",cells positive for ROS (total),"[6]; ABZ control, 0.48 μM per Figure 9, 24 h",33.85%
same,cells at G2 phase,[7],69.9%
same,cells at S phase,[7],22.1%
same,R1 cells positive for necrosis (PI+),[8],5%
same,cells in apoptosis (early plus late),[8],41.0%
"C=CCS [AM, allyl mercaptan]",effect on proteolytic bands in zymogram,"[1]; bands of 75, 60 and 25 kDa, concentration not given",significant increase of activity
same,MLC (mM) ±SD,[3],3.06 mM
same,MLC (mM) ±SD,[3]; listed as Allyl Mercaptan (AM),3.06 ± 0.7 mM
same,IC50,[3],0.83 ± 0.2 mM
same,effect on giardipain-1 cytopathic damage in IEC6 monolayers,giardipain-1; 514 mM pre-incubated 30 min with giardipain-1 16 μg/mL,noticeably blocked these effects
"C=CCSSCC=C [DADS, diallyl disulphide]",toxicity to IEC6 cell monolayers,IEC6 cell monolayers,affected some cells
same,effect on proteolytic bands in zymogram,[1]; 275 mM,could diminish similar activities except for the one at 60 kDa
same,MBC (maximal blocking concentration) ± SD,[5],> 200 mmol/mg protein and 224.58 ± 18.8 mmol/mg protein
same,MLC (mM) ±SD,[3],2.66 mM
same,MLC (mM) ±SD,[3]; listed as Diallyl Disulfide (DADS),2.66 ± 0.8 mM
same,IC50,[3],1.4 ± 0.6 mM
same,effect on giardipain-1 cytopathic damage in IEC6 monolayers,giardipain-1; 275 mM pre-incubated 30 min with giardipain-1 16 μg/mL,reduced the frequency of cells displaying apoptotic damage
"C=CCSSSCC=C [DATS, diallyl trisulfide]",MBC (maximal blocking concentration) ± SD,[5],> 200 mmol/mg protein and 201.61 ± 33.4 mmol/mg protein
same,MLC (mM) ±SD,[3],1.35 ± 0.18 mM

# From article PMC6196658, “Activity of Thioallyl Compounds From Garlic Against Giardia duodenalis Trophozoites and in Experimental Giardiasis” (Frontiers in Cellular and Infection Microbiology, 2018)
